Laboratory results as given in patent publication EP2970215B1, “PYRROLIDINE DERIVATIVES, PHARMACEUTICAL COMPOSITIONS CONTAINING THEM, AND THEIR USE IN THERAPY” (AbbVie Deutschland GmbH & Co. KG, priority 2013, dated 2014).

Target: T1, human GlyT1c transporter (Homo sapiens, UniProt P48067)
T1 construct: expressed in transfected cells; host or cells: CHO cells (recombinant; line hGlyT1c_5_CHO is named for the uptake assay)
T1 sequence (P48067 1-706): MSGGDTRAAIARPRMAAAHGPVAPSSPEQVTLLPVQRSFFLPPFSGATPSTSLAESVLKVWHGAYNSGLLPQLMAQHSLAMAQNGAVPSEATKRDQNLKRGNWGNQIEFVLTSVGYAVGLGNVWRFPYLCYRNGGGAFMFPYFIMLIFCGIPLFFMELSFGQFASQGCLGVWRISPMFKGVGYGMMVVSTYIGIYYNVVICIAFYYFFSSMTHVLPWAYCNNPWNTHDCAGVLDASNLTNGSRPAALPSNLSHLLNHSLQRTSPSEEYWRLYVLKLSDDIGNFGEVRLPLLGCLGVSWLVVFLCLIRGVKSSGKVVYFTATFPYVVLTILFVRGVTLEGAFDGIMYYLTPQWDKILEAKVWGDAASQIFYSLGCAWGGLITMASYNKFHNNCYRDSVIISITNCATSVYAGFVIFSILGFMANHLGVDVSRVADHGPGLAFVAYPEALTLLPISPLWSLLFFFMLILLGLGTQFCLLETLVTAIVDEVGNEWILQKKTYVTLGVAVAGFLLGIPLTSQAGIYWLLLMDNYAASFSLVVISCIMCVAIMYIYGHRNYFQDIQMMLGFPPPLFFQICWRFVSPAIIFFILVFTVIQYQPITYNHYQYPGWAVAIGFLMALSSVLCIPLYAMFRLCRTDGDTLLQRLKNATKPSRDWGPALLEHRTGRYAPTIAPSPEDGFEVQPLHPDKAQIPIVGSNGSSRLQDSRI
Assay: Radioligand binding assay using recombinant CHO cell membranes expressing human GlyT1
Conditions: radioligand binding to human GlyT1c transporter-expressing membranes
Description: 2. Radioligand binding assays using recombinant CHO cell membranes expressing human GlyT1: […]

Ki	Structure (SMILES)
≤ 0.1 µM	Cn1cnc(S(=O)(=O)N2C[C@@H](COc3ccnc(C(F)(F)F)c3)[C@H](c3ccc(F)cc3)C2)c1 (relative stereo) [Example 366, 4-({Trans-4-(4-fluorophenyl)-1-[(1-methyl-1H-imidazol-4-yl)sulfonyl]pyrrolidin-3-yl}methoxy)-2-(trifluoromethyl)pyridine]
≤ 1 µM	Cn1cnc(S(=O)(=O)N2C[C@@H](C(=O)Nc3ccc(F)c(OC(F)(F)F)c3)[C@H](c3ccc(F)cc3)C2)c1 (relative stereo) [Example 370, Trans-4-(4-fluorophenyl)-N-[4-fluoro-3-(trifluoromethoxy)phenyl]-1-[(1-methyl-1H-imidazol-4-yl)sulfonyl]pyrrolidine-3-carboxamide]
≤ 10 µM	Cn1cnc(S(=O)(=O)N2C[C@@H](O)[C@H](Nc3cccc(Cl)c3)C2)c1 (relative stereo) [Example 373, Trans-4-[(3-chlorophenyl)amino]-1-[(1-methyl-1H-imidazol-4-yl)sulfonyl]pyrrolidin-3-ol]
≥ 10 µM	Cn1cnc(S(=O)(=O)N2C[C@@H](NC(=O)C3(C(F)(F)F)CC3)[C@H](c3ccccn3)C2)c1 (relative stereo) [Example 374, N-[Trans-1-[(1-methyl-1H-imidazol-4-yl)sulfonyl]-4-(pyridin-2-yl)pyrrolidin-3-yl]-1-(trifluoromethyl)cyclopropanecarboxamide]
≤ 10 µM	Cn1cnc(S(=O)(=O)N2C[C@@H](Nc3cccc(Cl)c3)[C@H](Oc3ccc(F)cc3)C2)c1 (relative stereo) [Example 378, Trans-N-(3-chlorophenyl)-4-(4-fluorophenoxy)-1-[(1-methyl-1H-imidazol-4-yl)sulfonyl]pyrrolidin-3-amine]
≤ 10 µM	Cn1cnc(S(=O)(=O)N2C[C@@H](S(=O)(=O)c3ccccc3)[C@H](c3ccccc3)C2)c1 (relative stereo) [Example 385, 1-methyl-4-{[trans-3-phenyl-4-(phenylsulfonyl)pyrrolidin-1-yl]sulfonyl}-1H-imidazole]
≤ 10 µM	Cn1cnc(S(=O)(=O)N2C[C@@H](Nc3cccc(Cl)c3)[C@H](OCc3ccccc3)C2)c1 (relative stereo) [Example 400, Trans-4-(benzyloxy)-N-(3-chlorophenyl)-1-[(1-methyl-1H-imidazol-4-yl)sulfonyl]pyrrolidin-3-amine]
≤ 10 µM	C=CCO[C@@H]1CN(S(=O)(=O)c2cn(C)cn2)C[C@H]1Nc1cccc(Cl)c1 (relative stereo) [Example 402, Trans-N-(3-chlorophenyl)-1-[(1-methyl-1H-imidazol-4-yl)sulfonyl]-4-(prop-2-en-1-yloxy)pyrrolidin-3-amine]
≤ 0.1 µM	C=C(C)CO[C@@H]1CN(S(=O)(=O)c2cn(C)cn2)C[C@H]1Nc1cccc(Cl)c1 (relative stereo) [Example 403, Trans-N-(3-chlorophenyl)-1-[(1-methyl-1H-imidazol-4-yl)sulfonyl]-4-[(2-methylprop-2-en-1-yl)oxy]pyrrolidin-3-amine]
≤ 10 µM	CC(C)(C)OC(=O)N[C@@H]1CN(S(=O)(=O)c2ccccc2C#N)C[C@H]1c1ccccc1 (relative stereo) [Example 523, tert-butyl {trans-1-[(2-cyanophenyl)sulfonyl]-4-phenylpyrrolidin-3-yl}carbamate]
≤ 10 µM	N#Cc1ccccc1S(=O)(=O)N1C[C@@H](Nc2cc(C(F)(F)F)ccn2)[C@H](c2ccccc2)C1 (relative stereo) [Example 525, 2-{[trans-3-phenyl-4-{[4-(trifluoromethyl)pyridin-2-yl]amino}pyrrolidin-1-yl]sulfonyl}benzonitrile]

Second part, the compound before the results:

Structure (SMILES)	Ki
Cn1cnc(S(=O)(=O)N2C[C@@H](CNc3ccc(F)cc3)[C@H](c3ccc(F)cc3)C2)c1 (relative stereo) [Example 367, 4-Fluoro-N-({trans-4-(4-fluorophenyl)-1-[(1-methyl-1H-imidazol-4-yl)sulfonyl]pyrrolidin-3-yl}methyl)aniline]	≤ 0.1 µM
Cn1cnc(S(=O)(=O)N2C[C@@H](C(=O)Nc3cc(C(F)(F)F)ccn3)[C@H](c3ccc(F)cc3)C2)c1 (relative stereo) [Example 369, Trans-4-(4-fluorophenyl)-1-[(1-methyl-1H-imidazol-4-yl)sulfonyl]-N-[4-(trifluoromethyl)pyridin-2-yl]pyrrolidine-3-carboxamide]	≤ 1 µM
Cn1cnc(S(=O)(=O)N2C[C@@H](C(=O)Nc3ccc(Cl)c(OC(F)(F)F)c3)[C@H](c3ccc(F)cc3)C2)c1 (relative stereo) [Example 371, Trans-N-[4-chloro-3-(trifluoromethoxy)phenyl]-4-(4-fluorophenyl)-1-[(1-methyl-1H-imidazol-4-yl)sulfonyl]pyrrolidine-3-carboxamide]	≤ 1 µM
CC(=O)Nc1ccc(Cl)cc1N[C@@H]1CN(S(=O)(=O)c2cn(C)cn2)C[C@H]1c1ccc(F)cc1 (relative stereo) [Example 372, N-[4-chloro-2-({Trans-4-(4-fluorophenyl)-1-[(1-methyl-1H-imidazol-4-yl)sulfonyl]pyrrolidin-3-yl}amino)phenyl]acetamide]	≤ 10 µM
Cn1cnc(S(=O)(=O)N2C[C@@H](CNc3ccc(F)c(OC(F)(F)F)c3)[C@H](c3ccc(F)cc3)C2)c1 (relative stereo) [Example 376, 4-fluoro-N-({trans-4-(4-fluorophenyl)-1-[(1-methyl-1H-imidazol-4-yl)sulfonyl]pyrrolidin-3-yl}methyl)-3-(trifluoromethoxy)aniline]	≤ 1 µM
Cn1cnc(S(=O)(=O)N2C[C@@H](CNc3ccc(Cl)c(OC(F)(F)F)c3)[C@H](c3ccc(F)cc3)C2)c1 (relative stereo) [Example 377, 4-chloro-N-({trans-4-(4-fluorophenyl)-1-[(1-methyl-1H-imidazol-4-yl)sulfonyl]pyrrolidin-3-yl}methyl)-3-(trifluoromethoxy)aniline]	≤ 1 µM
Cn1cnc(S(=O)(=O)N2C[C@@H](Oc3cc(C(F)(F)F)ccn3)[C@H](c3ccc(F)cc3)C2)c1 (relative stereo) [Example 379, 2-({trans-4-(4-fluorophenyl)-1-[(1-methyl-1H-imidazol-4-yl)sulfonyl]pyrrolidin-3-yl}oxy)-4-(trifluoromethyl)pyridine]	≤ 0.1 µM
Cn1cnc(S(=O)(=O)N2C[C@@H](N3Cc4ccc(Cl)cc4C3=O)[C@H](c3ccccn3)C2)c1 (relative stereo) [Example 381, 6-chloro-2-[Trans-1-[(1-methyl-1H-imidazol-4-yl)sulfonyl]-4-(pyridin-2-yl)pyrrolidin-3-yl]-2,3-dihydro-1H-isoindol-1-one]	≤ 10 µM
Cn1cnc(S(=O)(=O)N2C[C@@H](Nc3cc(C(F)(F)F)cnn3)[C@H](c3ccc(F)cc3)C2)c1 (relative stereo) [Example 383, N-{trans-4-(4-fluorophenyl)-1-[(1-methyl-1H-imidazol-4-yl)sulfonyl]pyrrolidin-3-yl} -5 - (trifluoromethyl)pyridazin-3-amine]	≤ 1 µM
Cn1cnc(S(=O)(=O)N2C[C@@H](N3Cc4cc(C(F)(F)F)ccc4NC3=O)[C@H](c3ccccc3)C2)c1 (relative stereo) [Example 404, 3-{Trans-1-[(1-methyl-1H-imidazol-4-yl)sulfonyl]-4-phenylpyrrolidin-3-yl}-6-(trifluoromethyl)-3,4-dihydroquinazolin-2(1H)-one]	≤ 10 µM
CC(C)CO[C@@H]1CN(S(=O)(=O)c2cn(C)cn2)C[C@H]1Nc1cccc(Cl)c1 (relative stereo) [Example 412, Trans-N-(3-chlorophenyl)-1-[(1-methyl-1H-imidazol-4-yl)sulfonyl]-4-(2-methylpropoxy)pyrrolidin-3-amine]	≤ 1 µM
Cn1cnc(S(=O)(=O)N2C[C@@H](Nc3cccc(OC(F)(F)F)c3)[C@H](C3CCCCC3)C2)c1 (relative stereo) [Example 425, Trans-4-cyclohexyl-1-[(1-methyl-1H-imidazol-4-yl)sulfonyl]-N-[3-(trifluoromethoxy)phenyl]pyrrolidin-3-amine]	≤ 0.01 µM
CC(C)(C)OC(=O)N[C@@H]1CN(S(=O)(=O)c2ccccc2C#N)C[C@H]1c1ccc(F)cc1 (relative stereo) [Example 524, tert-butyl [trans-1-[(2-cyanophenyl)sulfonyl]-4-(4-fluorophenyl)pyrrolidin-3-yl]carbamate]	≤ 10 µM
NC(=O)c1ccccc1S(=O)(=O)N1C[C@@H](Nc2cc(C(F)(F)F)ccn2)[C@H](c2ccccc2)C1 (relative stereo) [Example 526, 2-{[trans-3-phenyl-4-{[4-(trifluoromethyl)pyridin-2-yl]amino}pyrrolidin-1-yl]sulfonyl}benzamide]	≤ 10 µM
N#Cc1ccccc1S(=O)(=O)N1C[C@@H](N)[C@H](c2ccccc2)C1 (relative stereo) [Example 527, 2-(Trans-3-amino-4-phenylpyrrolidin-1-ylsulfonyl)benzonitrile]	≤ 10 µM
N#Cc1ccccc1S(=O)(=O)N1C[C@@H](Nc2cccc(Cl)c2)[C@H](c2ccccc2)C1 (relative stereo) [Example 528, 2-({Trans-3-[(3-chlorophenyl)amino]-4-phenylpyrrolidin-1-yl}sulfonyl)benzonitrile]	> 10 µM
